The values below are quoted from earlier work in patent US20240315962A1, “EXTENDED RELEASE COMPOSITIONS COMPRISING PYRIDOSTIGMINE” (priority 2020, published 2024).

The structures appear in SMILES notation.

As to `CN(C)C(=O)Oc1ccc[n+](C)c1` [pyridostigmine], the bioavailability (NDA #020414) is listed as 10-20%. Under “oral”, the elimination half-life is 3 to 5 h and the “time-to-maximum peak plasma concentration” value was 1 to 2 h.
